The structures appear in SMILES notation.

The record followed here is patent US20240343704A1, “HALO-SUBSTITUTED AMINO PYRIDINE COMPOUNDS AS INHIBITORS OF THE HAEMATOPOIETIC PROGENITOR KINASE 1 (HPK1)” (priority 2021, published 2024).

The target of test [1] is T1, Recombinant (1-346) HPK1 (h) (Homo sapiens, UniProt Q92918).
T1 construct: Recombinant (1-346) HPK1 (h) is incubated with 8 mM MOPS pH 7.0
T1 sequence (Q92918 1-346): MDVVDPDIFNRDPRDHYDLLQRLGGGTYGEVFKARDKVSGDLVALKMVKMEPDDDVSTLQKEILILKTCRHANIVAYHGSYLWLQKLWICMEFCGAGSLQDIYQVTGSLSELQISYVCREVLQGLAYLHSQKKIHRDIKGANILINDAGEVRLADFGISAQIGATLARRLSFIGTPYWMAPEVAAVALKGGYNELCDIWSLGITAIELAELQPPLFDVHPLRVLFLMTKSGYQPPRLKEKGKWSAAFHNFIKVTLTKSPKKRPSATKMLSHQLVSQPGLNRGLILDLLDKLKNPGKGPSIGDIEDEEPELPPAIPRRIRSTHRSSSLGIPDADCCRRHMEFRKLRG
As to the kind of experiment: HPK1 Human STE Kinase Enzymatic Radiometric Assay. It counts as biochemical. The following applies: read-out: HPK1 IC50 nM Range*. Here is the method:
A stock solution of 10 mM of test compound is prepared in DMSO. The compound plate was prepared by 3-fold and 9-point serial dilutions. […] The reaction is initiated by The addition of the Mg/ATP mix. After incubation for 40 minutes at RT, the reaction is stopped by the addition of phosphoric acid to a concentration of 0.5%.

In the next test the target is Lck (h) (Homo sapiens, UniProt P06239). The test is described as follows: Lck Human  Kinase Enzymatic Radiometric Assay. It counts as biochemical. The following applies: read-out: Lck IC50 nM Range*. In a few lines: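 Substrate 33P-incorporation measured by scintillation counting after spotting on P30 filtermat and phosphoric acid washes. Human Lck reacted 40 min at RT in 50 mM Tris pH 7.5 with 10 mM MgAcetate, [gamma-33P]-ATP, 250 uM Cdc2 peptide, 0.1 mM EGTA and 0.1 mM Na3VO4.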
Lck (h), sequence (P06239 whole entry): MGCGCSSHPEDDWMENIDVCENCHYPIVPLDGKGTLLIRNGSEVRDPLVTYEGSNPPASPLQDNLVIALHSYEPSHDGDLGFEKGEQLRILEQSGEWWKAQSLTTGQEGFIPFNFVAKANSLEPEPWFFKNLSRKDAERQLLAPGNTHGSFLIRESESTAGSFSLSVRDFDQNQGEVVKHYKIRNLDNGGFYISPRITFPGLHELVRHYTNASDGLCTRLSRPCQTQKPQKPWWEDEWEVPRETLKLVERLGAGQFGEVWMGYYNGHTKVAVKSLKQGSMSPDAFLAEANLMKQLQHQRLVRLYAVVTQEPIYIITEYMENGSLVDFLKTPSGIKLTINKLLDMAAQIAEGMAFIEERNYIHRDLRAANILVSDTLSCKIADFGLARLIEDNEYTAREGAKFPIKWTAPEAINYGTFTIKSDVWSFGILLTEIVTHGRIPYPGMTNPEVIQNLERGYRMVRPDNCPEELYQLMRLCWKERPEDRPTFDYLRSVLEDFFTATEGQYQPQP

Consider `Nc1nc(F)c(-c2cc(F)c(OC3CCNCC3)cc2F)cc1-c1ccc2c(c1)CCNC2=O` [I-149, 6-(2-amino-5-(2,5-difluoro-4-(piperidin-4-yloxy)phenyl)-6-fluoropyridin-3-yl)-3,4-dihydroisoquinolin-1(2H)-one], for which the IC50 (as a rule, the midpoint of a concentration-inhibition curve) in test [1] is 11 to 100 nM; at Lck (h), more than 1000 nM.
For the molecule `CCN1CCC(c2ccc(-c3cc(-c4ccc5c(c4)CCNC5=O)c(N)nc3F)cc2)C1` (stereo not shown) [I-235, 6-(2-amino-5-(4-(1-ethylpyrrolidin-3-yl)phenyl)-6-fluoropyridin-3-yl)-3,4-dihydroisoquinolin-1(2H)-one], the results for the half-inhibitory concentration (IC50) (in test [1]; on Lck (h)) were 0.1 to 10 nM and more than 1000 nM, respectively.
Turning to `CNCC1Cc2cc(-c3cc(-c4ccc(N5CCN(C(C)C)CC5)cc4)c(F)nc3N)ccc2C(=O)N1` (stereo not shown) [I-286, 6-(2-amino-6-fluoro-5-(4-(4-isopropylpiperazin-1-yl)phenyl)pyridin-3-yl)-3-((methylamino)methyl)-3,4-dihydroisoquinolin-1(2H)-one], the results for the IC50 (in test [1]; at Lck (h)) were 0.1 to 10 nM and more than 1000 nM, respectively.
The matching figures for `Nc1nc(F)c(-c2ccc(S(=O)(=O)N3CCCC3)cc2)cc1-c1ccc2c(c1)CCNC2=O` [I-99, 6-(2-amino-6-fluoro-5-(4-(pyrrolidin-1-ylsulfonyl)phenyl)pyridin-3-yl)-3,4-dihydroisoquinolin-1(2H)-one]: 11 to 100 nM and more than 1000 nM.
On to `Nc1nc(F)c(-c2ccc(C3CCN(CC(F)(F)F)CC3)cc2)cc1-c1cc2c(cc1F)C(=O)NCC2` [I-248, 6-(2-amino-6-fluoro-5-(4-(1-(2,2,2-trifluoroethyl)piperidin-4-yl)phenyl)pyridin-3-yl)-7-fluoro-3,4-dihydroisoquinolin-1(2H)-one], for which the 50% inhibitory concentration (IC50) in test [1] was 11 to 100 nM; at Lck (h), more than 1000 nM.
`CN1CCN(c2ccc(-c3cc(-c4cc5c(cc4F)C(=O)NCC5)c(N)nc3F)c(Cl)c2)CC1` [I-252, 6-(2-amino-5-(2-chloro-4-(4-methylpiperazin-1-yl)phenyl)-6-fluoropyridin-3-yl)-7-fluoro-3,4-dihydroisoquinolin-1(2H)-one]: the half-inhibitory concentration (IC50) in test [1] was 0.1 to 10 nM; at Lck (h), more than 1000 nM.
Regarding `COCC(=O)N1C[C@H]2C[C@@]2(c2ccc(-c3cc(-c4ccc5c(c4)CCNC5=O)c(N)nc3F)cc2)C1` [I-220, 6-(2-amino-6-fluoro-5-(4-((1R,5S)-3-(2-methoxyacetyl)-3-azabicyclo[3.1.0]hexan-1-yl)phenyl)pyridin-3-yl)-3,4-dihydroisoquinolin-1(2H)-one], the figures for the IC50 (in test [1]; at Lck (h)) were 0.1 to 10 nM and more than 1000 nM, respectively.
Take `CN1CC=C(c2ccc(-c3cc(-c4ccc5c(c4)CCNC5=O)c(N)nc3Cl)cc2)CC1` [I-230, 6-(2-amino-6-chloro-5-(4-(1-methyl-1,2,3,6-tetrahydropyridin-4-yl)phenyl)pyridin-3-yl)-3,4-dihydroisoquinolin-1(2H)-one]: the half-maximal inhibitory concentration (IC50) is 11 to 100 nM in test [1] and more than 1000 nM on Lck (h).
On to `CN1CCN(c2ccc(-c3cc(-c4ccc5c(c4)CCNC5=O)c(N)nc3F)nc2)CC1` [I-27, 6-(6′-amino-2′-fluoro-5-(4methylpiperazin-1-yl)-[2,3′-bipyridin]-5′-yl)-3,4dihydroisoquinolin-1(2H)-one acetate], for which the values for the IC50 (in test [1]; at Lck (h)) were 0.1 to 10 nM and more than 1000 nM, respectively.
With `CCN1CCN(c2ccc(-c3cc(-c4ccc5c(c4)CCNC5=O)c(N)nc3Cl)cc2)CC1` [I-75, 6-(2-amino-6-chloro-5-(4-(4-ethylpiperazin-1-yl)phenyl)pyridin-3-yl)-3,4-dihydroisoquinolin-1(2H)-one], the IC50 in test [1] was 11 to 100 nM; at Lck (h), more than 1000 nM.
The matching figures for `CC(C)N1CCCC(c2ccc(-c3cc(-c4ccc5c(c4)CCNC5=O)c(N)nc3F)cc2)C1` (stereo not shown) [I-80, 6-(2-amino-6-fluoro-5-(4-(1-isopropylpiperidin-3-yl)phenyl)pyridin-3-yl)-3,4-dihydroisoquinolin-1(2H)-one]: 0.1 to 10 nM and more than 1000 nM.
In the case of `COCCN1CCC(c2ccc(-c3cc(-c4cc(F)c5c(c4)CCNC5=O)c(N)nc3F)cc2)CC1` [I-350, 6-(2-amino-6-fluoro-5-(4-(1-(2-methoxyethyl)piperidin-4-yl)phenyl)pyridin-3-yl)-8-fluoro-3,4-dihydroisoquinolin-1(2H)-one], the IC50 fell in the range of 0.1 to 10 nM in test [1] and 101 to 1000 nM at Lck (h).
In the case of `CC(C)N1CCC(Oc2ccc(-c3cc(-c4cc5c(cc4F)C(=O)NCC5)c(N)nc3F)cc2C#N)CC1` [I-292, 5-(6-amino-2-fluoro-5-(7-fluoro-1-oxo-1,2,3,4-tetrahydroisoquinolin-6-yl)pyridin-3-yl)-2-((1-isopropylpiperidin-4-yl)oxy)benzonitrile], the half-maximal inhibitory concentration (IC50) in test [1] was 0.1 to 10 nM; on Lck (h) it was more than 1000 nM.
Regarding `CN(C)CC(=O)N1C[C@H]2C[C@@]2(c2ccc(-c3cc(-c4ccc5c(c4)CCNC5=O)c(N)nc3F)cc2)C1` [I-225, 6-(2-amino-5-(4-((1R,5S)-3-(dimethylglycyl)-3-azabicyclo[3.1.0]hexan-1-yl)phenyl)-6-fluoropyridin-3-yl)-3,4-dihydroisoquinolin-1(2H)-one], the 50% inhibitory concentration (IC50) was 0.1 to 10 nM in test [1] and more than 1000 nM on Lck (h).
As to `CC(C)N1CCC(Oc2ccc(-c3cc(-c4ccc5c(c4)CCNC5=O)c(N)nc3F)cc2F)CC1` [I-268, 6-(2-amino-6-fluoro-5-(3-fluoro-4-((1-isopropylpiperidin-4-yl)oxy)phenyl)pyridin-3-yl)-3,4-dihydroisoquinolin-1(2H)-one], the IC50 in test [1] was 0.1 to 10 nM; on Lck (h), more than 1000 nM.
As to `Nc1nc(F)c(-c2ccc(C3CCN(CC(F)F)CC3)cc2)cc1-c1ccc2c(c1)CCNC2=O` [I-43, 6-(2-amino-5-(4-(1-(2,2-difluoroethyl)piperidin-4-yl)phenyl)-6-fluoropyridin-3-yl)-3,4-dihydroisoquinolin-1(2H)-one], the results for the IC50 (in test [1]; on Lck (h)) were 0.1 to 10 nM and more than 1000 nM, respectively.
Consider `CCN1CC=C(c2ccc(-c3cc(-c4cc5c(cc4F)C(=O)NCC5)c(N)nc3F)cc2)CC1` [I-296, 6-(2-amino-5-(4-(1-ethyl-1,2,3,6-tetrahydropyridin-4-yl)phenyl)-6-fluoropyridin-3-yl)-7-fluoro-3,4-dihydroisoquinolin-1(2H)-one], for which the 50% inhibitory concentration (IC50) is 0.1 to 10 nM in test [1] and more than 1000 nM at Lck (h).
The matching figures for `N#Cc1cc(-c2cc(-c3ccc4c(c3)CCNC4=O)c(N)nc2F)ccc1OC1CCN(CC(F)(F)F)CC1` [I-198, 5-(6-amino-2-fluoro-5-(1-oxo-1,2,3,4-tetrahydroisoquinolin-6-yl)pyridin-3-yl)-2-((1-(2,2,2-trifluoroethyl)piperidin-4-yl)oxy)benzonitrile]: 11 to 100 nM and more than 1000 nM.
With `Nc1nc(F)c(-c2ccc(OC3CCN(C4COC4)CC3)cc2)cc1-c1ccc2c(c1)CCNC2=O` [I-338, 6-(2-amino-6-fluoro-5-(4-((1-(oxetan-3-yl)piperidin-4-yl)oxy)phenyl)pyridin-3-yl)-3,4-dihydroisoquinolin-1(2H)-one], the IC50 in test [1] was 11 to 100 nM; at Lck (h), more than 1000 nM.
On to `Nc1nc(F)c(-c2ccc(C3CCN(CCO)CC3)cc2)cc1-c1ccc2c(c1)CCNC2=O` [I-119, 6-(2-amino-6-fluoro-5-(4-(1-(2-hydroxyethyl)piperidin-4-yl)phenyl)pyridin-3-yl)-3,4-dihydroisoquinolin-1(2H)-one], for which the half-maximal inhibitory concentration (IC50) in test [1] is 0.1 to 10 nM; on Lck (h), more than 1000 nM.
